Source: US11633379B2, “Methods of inhibiting PCSK9” (TRUSTEES OF DARTMOUTH COLLEGE, priority 2017, dated 2023)

Tests used:
apoE [1] = test: apoE secretion, HepG2 (ELISA); type: cell-based, human; conditions: HepG2, FIG. 7A
Description: The collected media was analyzed for apoE levels using commercially available ELISA kit (ABCAM, catalog #108813) following the manufacturer instruction.

[2] = test system: 4000 most abundant proteins in HepG2 cells; test: Shotgun proteomics of HepG2 cells; type: cell-based, human; conditions: 5 μM, FIGS. 8A-8B
Description: To study whether 34 affect total protein levels in hepG2 in an unbiased analysis we used 1×10^6 HepG2 cells in 6-well culture plates, followed by incubation with media+0.1% DMSO or DMSO or with increasing concentration (2.5-10 μM) of 34 in 0.1% DMSO for 24 hours. After 24 hours media was aspirated, cells were washed with HBSS followed by shotgun proteomics analysis of the most abundant ˜4000 cellular proteins. Spectral count for each protein was compared between untreated (0.1% DMSO) to treated (34 at 5 μM) samples.

PCSK9 = test: Intracellular PCSK9 protein in HepG2 cells (western blot); type: cell-based, human; conditions: FIG. 1A
Description: To study whether 34 affect intracellular PCSK9 levels we used 1×10^6 HepG2 cells in 6-well culture plates, followed by incubation with media+0.1% DMSO or increasing concentration (0.2-50 uM) of 34 in 0.1% DMSO for 24 hours. After 24 hours media was aspirated, cells were washed with HBSS followed by protein extraction using commercially available RIPA buffer (SIGMA-ALDRICH, catalog #20-188). Protein extracts (20 μg) were used for immunodetection of intracellular PCSK9 (western blot analysis) with a commercially available primary antibody against PCSK9 (MBL-international, catalog # CY-1037), HRP-conjugated secondary antibody (SIGMA-ALDRICH, catalog #12-348) visualized using an enhanced chemiluminescence (ECL) solution (Cumaric acid, Luminol and hydrogen peroxide), developed in a LiCore imager.

PCSK9 mRNA = test: PCSK9 transcription in HepG2 cells (real-time PCR); type: cell-based, human; conditions: FIG. 1B
Description: To study whether 34 affect PCSK9 mRNA levels we used 1×10^6 HepG2 cells in 6-well culture plates, followed by incubation with media+0.1% DMSO or increasing concentration (0.2-50 μM) of 34 in 0.1% DMSO for 24 hours. After 24 hours media was aspirated, cells were washed with HBSS followed by RNA extraction kit (RNeasy, QIAGEN cat #74-104). mRNA was reversed transcribed to cDNA using commercially available kit (ThermoFisher, cat #4368814) and analyzed using real-time PCR for PCSK9 transcript levels using the relative expression method known as delta-delta CT.

apoE [3] = test: Intracellular apoE, HepG2 (western blot); type: cell-based, human; conditions: 40 hours of incubation, HepG2, FIG. 7C
Excerpt: […] […] Protein extracts (25 μgr) were used for immunodetection of intracellular […] (western blot analysis) with a commercially available primary antibody against apoE (ABCAM, catalog #1906), HRP-conjugated secondary antibody (SIGMA-ALDRIC, catalog # A5420) visualized using an enhanced chemiluminescence (ECL) solution (Cumaric acid, Luminol and hydrogen peroxide), developed in a LiCore imager.

recombinant PCSK9 = recombinant PCSK9 (Homo sapiens, UniProt Q8NBP7); test: PCSK9 detection interference (ELISA); conditions: FIG. 5A
recombinant PCSK9, sequence (Q8NBP7 153-692): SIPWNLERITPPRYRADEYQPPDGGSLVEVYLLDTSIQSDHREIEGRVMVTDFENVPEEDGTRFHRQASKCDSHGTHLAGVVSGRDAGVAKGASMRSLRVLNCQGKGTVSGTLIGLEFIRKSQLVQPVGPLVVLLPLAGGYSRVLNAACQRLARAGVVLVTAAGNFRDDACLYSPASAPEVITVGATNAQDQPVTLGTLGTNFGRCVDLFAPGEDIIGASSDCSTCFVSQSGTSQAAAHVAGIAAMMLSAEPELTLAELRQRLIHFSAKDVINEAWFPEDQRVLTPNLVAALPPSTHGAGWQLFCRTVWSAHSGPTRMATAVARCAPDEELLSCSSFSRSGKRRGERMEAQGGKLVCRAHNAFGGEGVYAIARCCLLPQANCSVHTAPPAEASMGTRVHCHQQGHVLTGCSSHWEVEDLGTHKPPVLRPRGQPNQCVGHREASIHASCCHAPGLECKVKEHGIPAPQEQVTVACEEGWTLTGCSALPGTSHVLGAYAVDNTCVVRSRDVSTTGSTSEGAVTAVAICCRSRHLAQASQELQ
Description: To study whether 34 directly interfere with PCSK9 detection we used recombinant PCSK9 (30 ng/ml) was mixed with increasing concentration (0.2-50 μM) of 34 in 0.1% DMSO followed by detection of PCSK9 using commercially available ELISA kit (MBL-international, catalog # CY-8079) following the manufacturer instruction.

albumin = test: Albumin secretion, HepG2 (ELISA); type: cell-based, human
Description: The collected media was analyzed for albumin levels using commercially available ELISA kit (ABCAM, catalog #108788) following the manufacturer instruction.

LDLR = test: Hepatic LDLR levels in mice (western blot); type: in vivo; conditions: livers on day 5 after daily oral 100 mg/kg/day, FIG. 14B
Description: 2) Daily dosage experiments: mice were administered daily oral gavage with 200 μl of 34 (100 mg/kg) in 0.1% Tween80+1% hydroxyethyl cellulose (HEC) in buffered (PBS pH7.4) solution. 50-70 μl of blood was collected from the retro-orbital plexus on day 3 and day 5 after 34 administration, on day 5 mice were euthanized and liver were collected and analyzed as mentioned below under the “Liver analyses” section. Blood was left to clot at room temperature for 20 min, followed by serum separation (spin at 1000 g for 10 min). Serum was analyzed as described below: Hepatic LDLR levels—To study whether 34 affect hepatic LDLR levels we used 10 mg of PBS-flushed livers. Livers were minced and proteins were extracted using available RIPA buffer (SIGMA-ALDRICH, catalog #20-188). Protein extracts (5 μgr) were used for immunodetection of intracellular LDLR (western blot analysis) with a commercially available primary antibody against LDLR (ABCAM, catalog #14056), HRP-conjugated secondary antibody (ABCAM, catalog #97135) visualized using an enhanced chemiluminescence (ECL) solution (Cumaric acid, Luminol and hydrogen peroxide), developed in a LiCore imager.

apoE mRNA = test: apoE transcription, HepG2 (real-time PCR); type: cell-based, human; conditions: HepG2, FIG. 7B
Excerpt: , cells were washed with HBSS followed by RNA extraction kit (RNeasy, QIAGEN cat #74-104). mRNA was reversed transcribed to cDNA using commercially available kit (ThermoFisher, cat #4368814) and analyzed using real-time PCR for apoE transcript levels using the relative expression method known as delta-delta CT.

CC(=O)Oc1ccc(C2CC3(CCCCC3)c3c2[nH]c2ccccc32)cc1 (stereo not shown) [Compound 34]
secreted apoE levels (apoE [1]): no changes in secreted, intracellular, or mRNA levels of apoE | levels of the 4000 most abundant proteins [2]: does not affect the levels of the 4000 most abundant proteins in HepG2 cells | intracellular PCSK9, pro-protein and mature forms (PCSK9): reduces levels of both the pro-protein and the mature forms of PCSK9 in a dose-dependent manner | PCSK9 mRNA levels (PCSK9 mRNA): reduces levels of PCSK9 mRNA in a dose-dependent manner | intracellular apoE levels (apoE [3]): no changes in secreted, intracellular, or mRNA levels of apoE | interference with PCSK9 detection (recombinant PCSK9): does not interfere with PCSK9 detection | secreted albumin (albumin; 20 μM and 50 μM, HepG2, result of increased cell death): Reduction in secreted and intracellular albumin | secreted albumin (albumin; up to 10 μM, 40 hours of incubation, HepG2, FIG. 6A): no changes in secreted or intracellular albumin | increase in hepatic LDLR (LDLR): 16.2% | apoE mRNA levels (apoE mRNA): no changes in secreted, intracellular, or mRNA levels of apoE
